Reference: patent publication US20210094919A1, “KRAS MUTANT PROTEIN INHIBITORS” (Jacobio Pharmaceuticals Co., Ltd., priority 2019, published 2021)

molecular target: T1, HIS-KRAS (G12C, aa 2-185) (Homo sapiens, UniProt P01116, G12C); experiment: SOS1 catalyzed nucleotide exchange assay (TR-FRET); format: biochemical; conditions: GDP-loaded HIS-KRAS (G12C) pre-incubated with compound 1 hour, SOS1 ExD and BODIPY FL GTP added, 4 hours at 25° C.
T1 construct: HIS-KRAS (G12C, aa 2-185, Sino biological); purchased Sino biological
T1 sequence (P01116 2-185 isoform P01116-2 G12C): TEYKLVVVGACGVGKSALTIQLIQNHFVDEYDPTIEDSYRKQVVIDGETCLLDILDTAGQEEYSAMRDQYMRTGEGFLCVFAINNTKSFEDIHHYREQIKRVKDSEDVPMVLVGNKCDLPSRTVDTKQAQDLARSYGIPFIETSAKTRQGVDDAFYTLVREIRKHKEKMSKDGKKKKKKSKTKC
Protocol: HIS-KRAS (G12C, aa 2-185, Sino biological) was diluted to 5 μM in EDTA buffer (20 mM HEPES, pH 7.4, 50 mM NaCl, 10 mM EDTA, 0.01% (v/v) Tween-20) and incubated for 30 min at 25° C. The EDTA pretreated HIS-KRAS (G12C) was diluted to 12 nM in assay buffer (25 mM HEPES, pH 7.4, 120 mM NaCl, 5 mM MgCl2, 1 mM DTT, 0.01% (v/v) Tween 20, 0.1% (w/v) BSA) containing 120 nM GDP (Sigma) and MAb Anti 6HIS-Tb cryptate Gold (Cisbio) and incubated for 1 hour at 25° C. to prepare GDP-loaded HIS-KRAS (G12C). The GDP-loaded HIS-KRAS (G12C) was pre-incubation with diluted compounds in a 384-well plate (Greiner) for 1 hour, then purified SOS1 ExD (Flag tag, aa 564-1049) and BODIPY™ FL GTP (Invitrogen) were added to the assay wells (Final concentration: 3 nM HIS-KRAS (G12C), 2 μM SOS1 ExD, 80 nM BODIPY™ FL GTP, 21 ng/mL MAb Anti 6HIS-Tb cryptate Gold) and incubated for 4 hours at 25° C. TR-FRET signals were then read on Tecan Spark multimode microplate reader. The parameters were F486: Excitation 340 (35) nm, Emission 486 (10) nm, Lag time 100 las, Integration time 200 las; F515: Excitation 340 (35) nm, Emission 515 (10) nm, Lag time 100 las, Integration time 200 las. TR-FRET ratios for each individual wells were calculated by equation: TR-FRET ratio=(Signal F515/Signal F486)*10000. Then the data were analyzed using a 4-parameter logistic model to calculate IC50 values.

`C=CC(=O)N1CCN(c2c(C#N)c(OC[C@@H]3CCCN3C)nc3c2CCN(c2cccc4cccc(C)c24)C3)C[C@@H]1C` [Compound 6, 4-((S)-4-acryloyl-3-methylpiperazin-1-yl)-7-(8-methylnaphthalen-1-yl)-2-(((S)-1-methylpyrrolidin-2-yl)methoxy)-5,6,7,8-tetrahydro-1,7-naphthyridine-3-carbonitrile] and `C=CC(=O)N1CCN(c2c(C#N)c(OC[C@@H]3CCCN3C)nc3c2CCN(c2cccc4cccc(C)c24)C3)C[C@H]1C` [Compound 5, 4-((R)-4-acryloyl-3-methylpiperazin-1-yl)-7-(8-methylnaphthalen-1-yl)-2-(((S)-1-methylpyrrolidin-2-yl)methoxy)-5,6,7,8-tetrahydro-1,7-naphthyridine-3-carbonitrile] cannot be ordered by IC50: over 1000 nM for the first, over 1000 nM for the second.

`C=CC(=O)N1CC(Nc2c(C#N)c(OC[C@@H]3CCCN3C)nc3c2CCN(c2cccc4cccc(C)c24)C3)C1` [Compound 4, (S)-4-((1-acryloylazetidin-3-yl)amino)-7-(8-methylnaphthalen-1-yl)-2-((1-methylpyrrolidin-2-yl)methoxy)-5,6,7,8-tetrahydro-1,7-naphthyridine-3-carbonitrile] and `C=CC(=O)N1CCN(c2c(C#N)c(OC[C@@H]3CCCN3C)nc3c2CCN(c2cccc4cccc(C)c24)C3)CC1` [Compound 2, (S)-4-(4-acryloylpiperazin-1-yl)-7-(8-methylnaphthalen-1-yl)-2-((1-methylpyrrolidin-2-yl)methoxy)-5,6,7,8-tetrahydro-1,7-naphthyridine-3-carbonitrile] cannot be ordered by IC50: over 1000 nM for the first, over 1000 nM for the second.

Going from `C=CC(=O)N1CCN(c2c(C#N)c(OC[C@@H]3CCCN3C)nc3c2CCN(c2cccc4cccc(C)c24)C3)CC1CC#N` (stereo partly drawn) [Compound 1, 4-(4-acryloyl-3-(cyanomethyl)piperazin-1-yl)-7-(8-methylnaphthalen-1-yl)-2-(((S)-1-methylpyrrolidin-2-yl)methoxy)-5,6,7,8-tetrahydro-1,7-naphthyridine-3-carbonitrile] to `C=CC(=O)N1[C@H](C)CN(c2c(C#N)c(OC[C@@H]3CCCN3C)nc3c2CCN(c2cccc4cccc(C)c24)C3)C[C@@H]1C` [Compound 3, 4-((3S,5R)-4-acryloyl-3,5-dimethylpiperazin-1-yl)-7-(8-methylnaphthalen-1-yl)-2-(((S)-1-methylpyrrolidin-2-yl)methoxy)-5,6,7,8-tetrahydro-1,7-naphthyridine-3-carbonitrile], the IC50 rises from 53.1 nM to over 1000 nM.
